Experiments:
[1] = system: rabbit aortic smooth muscle; experiment: Ca+2 antagonism: relaxation of KCl-depolarized rabbit aortic smooth muscle strips; conditions: Oryctolagus cuniculus, 20 min, compound 1 x 10^-5M; 100mM KCl contraction; 20 minutes after addition; mean of two experiments; read-out: P.R. (percent relaxation of aortic tissue)
Experimental: The composition of PSS was as follows (mM): NaCl 112,KCI 5, NaHCO3 25 KH2PO4 1, MgSO4 1.2, CaCl2 2.5, dextrose 10. The lower end of each tissue strip was attached to a fixed post and the upper end to a Statham UC-4 transducer. Changes in force development were recorded on a Beckman Dynograph Polygraphic Recorder.
Following equilibration, the muscles were contracted in a depolarizing solution of PSS in which 100mM KCI was substituted for an equimolar concentration of NaCI. Following attainment of steady- state isometric force (20 min.), the test compound was added to afford a final concentration of 1 x 10^-5M. The inhibitory effect, expressed as percent relaxation, was determined from the mean of two experiments twenty minutes after the addition of the compound being tested.
(§1) The following examples illustrate the preparation of a representative number of compounds of this invention. After each example, the Ca+2 antagonist activity of the compound is presented in terms of percent relaxation of aortic tissue (P.R.) at 10-^5M concentration. […] Inhibition of super- precipitation (Antag. of Actin-Myosin interaction) is expressed as percent inhibition (mean ± standard error of the mean for at least 3 separate experiments) at a compound concentration. In the same manner, inhibition of myosin light chain phosphorylation (Antag. of MLCP) is expressed as a percent inhibition at a compound concentration. Similarly, the antihypertensive activity is reported in terms of millimetres mercury (mmHg) systolic blood pressure (B.P.) reduction at the stated time post 50 mg/kg oral dosing or other dosing as indicated.

[2] = system: spontaneously hypertensive rats; experiment: Hypotensive effect: systolic blood pressure of spontaneously hypertensive rats; assay type: in vivo; conditions: mmHg per method
Experimental: The hypotensive in vivo effect of the compounds of this invention was determined by measuring changes in the systolic blood pressure of spontaneously hypertensive rats with a Decker Caudal Plethysmograph. The compound being tested was administered to a group of 4 rats and their systolic pressure was determined prior to and at 1.5 and 4 hours after compound administration. Initial testing was done by oral administration of the compound. Results (mmHg) are expressed as decreases in systolic blood pressure.
as §1

[3] = system: arterial actin-myosin interactions; experiment: Inhibition of superprecipitation (antagonism of actin-myosin interaction), Silver et al.; assay type: biochemical; conditions: six minute time-point
Experimental: . The data reported herein was obtained at a six minute time-point rather than the 1.5, 5 and 12 minute time points indicated in the superprecipita- tion assay of the Silver et al paper.
as §1

[4] = biological target: Ca^+2-calmodulin dependent myosin light chain phosphorylation (Bos taurus, UniProt Q28824); experiment: Inhibition of myosin light chain phosphorylation (MLCP), Silver et al.; assay type: biochemical; conditions: read-out: Antag. of MLCP (percent inhibition of myosin light chain phosphorylation)
Experimental: The data reported herein was obtained at a six minute time-point rather than the 1.5, 5 and 12 minute time points indicated in the superprecipita- tion assay of the Silver et al paper.
as §1

[5] = system: isolated paced intact rabbit atria; experiment: Cardiac depressant (negative inotropic) effect in isolated paced rabbit atria; conditions: Oryctolagus cuniculus; rabbit atria paced at 3Hz, 30°C, cumulative dosing; read-out: IC25 (concentration which produces 25% inhibition of isometric force)
Experimental: The potential for detrimental cardiac depressant (negative inotropic) effects of the compounds of this invention was assessed in isolated paced intact rabbit atria. […] Muscles (N=5-9/compound) were stimulated at a frequency of 3Hz with a WPI stimulator for a 60 minute equilibration period. Changes in isometric force were recorded as described for the aortic smooth muscle experiments, supra. […]

Row | SMILES | inhibition at 10 µM [1] [%] | B.P. (systolic blood pressure reduction) ([2]; dose 10mg/kg oral, at 1.5 hours) [mm] | B.P. (systolic blood pressure reduction) ([2]; dose 10mg/kg oral, at 4 hours) [mm] | Antag. of Actin-Myosin (percent inhibition of superprecipitation) ([3]; 25µM) [%] | Antag. of Actin-Myosin (percent inhibition of superprecipitation) ([3]; 50µM) [%] | Antag. of Actin-Myosin (percent inhibition of superprecipitation) ([3]; 100µM) [%] | inhibition at 25 µM [4] [%] | inhibition at 50 µM [4] [%] | inhibition at 100 µM [4] [%] | IC25 [5] [nM] | B.P. (systolic blood pressure reduction) ([2]; dose 50mg/kg oral, at 1.5 hours) [mm] | B.P. (systolic blood pressure reduction) ([2]; dose 50mg/kg oral, at 4 hours) [mm] | B.P. (systolic blood pressure reduction) ([2]; dose 25mg/kg oral, at 4 hours) [mm] | B.P. (systolic blood pressure reduction) ([2]; dose 5mg/kg oral, at 1.5 hours) [mm] | B.P. (systolic blood pressure reduction) ([2]; dose 5mg/kg oral, at 4 hours) [mm] | B.P. (systolic blood pressure reduction) ([2]; dose 25mg/kg oral, at 1.5 hours) [mm] | Antag. of Actin-Myosin (percent inhibition of superprecipitation) ([3]; 10µM) [%] | inhibition at 10 µM ([4]; 10µM) [%]
1 | CC1=C(C(=O)OCCc2ccccc2)C(c2c(F)c(F)c(F)c(F)c2F)C2=C(CNCC2=O)N1 (centres unmarked) [Example 18, 1,4,5,6,7,8-Hexahydro-2-methyl-5-oxo-4-(pentafluorophenyl)-1,7-naphthyridine-3-carboxylic acid 2-phenylethyl ester] | 48 | -27 | -24 | 42 | 65 | 78±2 | 35 | 64 | 77 ± 3 | 1000 | – | – | – | – | – | – | – | –
2 | CC1=C(C(=O)OCCOc2ccccc2)C(c2cccc(Cl)c2Cl)C2=C(CNCC2=O)N1 (centres unmarked) [Example 19, 4-(2,3-Dichlorophenyl)-1,4,5,6,7,8-hexahydro-2-methyl-5-oxo-1,7-naphthyridine-3-carboxylic acid 2-phenoxyethylester] | 62 | – | – | – | – | 71 | – | – | 69 | 2500 | -50 | -73 | – | – | – | – | – | –
3 | CC1=C(C(=O)OCCCCOc2ccccc2)C(c2c(F)c(F)c(F)c(F)c2F)C2=C(CNCC2=O)N1 (centres unmarked) [Example 21, 1,4,5,6,7,8-Hexahydro-2-methyl-5-oxo-4-(pentafluorophenyl)-1,7-naphthyridine-3-carboxylic acid 4-phenoxvbutvl ester] | 61 | – | – | – | – | 80 | – | – | 77 | 1000 | – | – | -49 | – | – | – | – | –
4 | CC1=C(C(=O)OCCOc2cccc(Cl)c2Cl)C(c2c(F)ccc(Cl)c2Cl)C2=C(CNCC2=O)N1 (centres unmarked) [Example 25, 4-(2,3-dichloro-6-fluorophenyl)-1,4,5,6,7,8-hexahydro-2-methyl-5-oxo-1,7-naphthyridine-3-carboxylic acid 2-(2,3-dichlorophenoxy)ethyl ester] | 59 | – | – | 55±2.5 | 67±5 | 73±2.4 | 48 ± 3 | 60 ± 4 | 67 ± 2.3 | 700 | – | – | -70 | -18 | -40 | -74 | 34±7 | 32 ± 8
